Among the data in paper PMC5469750, “Antibacterial and detoxifying activity of NZ17074 analogues with multi-layers of selective antimicrobial actions against Escherichia coli and Salmonella enteritidis” (Scientific Reports, 2017) are MIC values, retold here.

One assay deals with E. coli CVCC1515. The format is cell-based, Escherichia coli. The following applies: CVCC1515. The protocol:
(§1) The antimicrobial activity of peptides was determined by the microbroth dilution method. The bacterial strains were incubated in Mueller-Hinton (MH) medium at 37 °C overnight until the mid-log phase (OD600 nm reading of 0.5). Bacteria were diluted to 1 × 10^5 CFU/ml and added into 96-well plates, followed by the addition of serial dilutions of peptides (from 0.0625 to 128 μg/ml). The plates were incubated at 37 °C for 18–24 h. The MIC value was determined as the lowest peptide concentration at which no bacterial growth was observed. All tests were conducted in triplicate.

The test system of the next assay is S. enteritidis CVCC3377. The class given is cell-based, Salmonella enteritidis. Conditions: CVCC3377. The protocol:
as §1

Assay [1] deals with Bacillus subtilis ATCC6633. The format is cell-based. Conditions: ATCC6633. The protocol:
as §1

Assay [2] deals with Enterococcus faecium CMCC1.2136. The format is cell-based. Conditions: CMCC1.2136. The protocol:
as §1

Another assay deals with Escherichia coli CVCC195. The format is cell-based. Conditions: CVCC195. The protocol: as §1
The test system of assay [3] is Listeria ivanovii ATCC19119. The format is cell-based. Conditions: ATCC19119. The protocol: as §1
Assay [4] concerns Pseudomonas aeruginosa CICC10419. The class given is cell-based. Conditions: CICC10419. The protocol: as §1
Another assay concerns S. pullorum CVCC1789. The format is cell-based. The following applies: CVCC1789. The protocol: as §1
In the next assay the test system is S. pullorum CVCC1802. The class given is cell-based. Conditions: CVCC1802. The protocol: as §1
Another assay relates to S. suis CVCC606. The format is cell-based. The protocol:
as §1

Assay [5] has as its system Salmonella typhimurium ATCC14028. The class given is cell-based. Conditions: ATCC14028. The protocol:
as §1

For assay [6], the system named is Staphylococcus aureus ATCC43300. The class given is cell-based. The following applies: ATCC43300. The protocol: as §1
A further assay has as its system P. aeruginosa CICC21630. The class given is cell-based, Pseudomonas aeruginosa. Conditions: CICC21630. The protocol:
as §1

The subject of the next assay is S. aureus ATCC25923. The class given is cell-based, Staphylococcus aureus. Conditions: ATCC25923. The protocol:
as §1

Assay [7] deals with Candida albicans CGMCC2.2411. The class given is cell-based. Conditions: CGMCC2.2411.
For another assay, the system named is S. choleraesuis CVCC503. The format is cell-based. The following applies: CVCC503. The protocol:
as §1

Values after ≈ are worked out from the molar mass of the structure shown. Where a SMILES comes first, the peptide text is derived from it. Bridges are numbered along the chain shown (N, C = ends). Where only a bound is given, the exact number is not on record here.

In the case of `CC(C)[C@@H]1NC(=O)CNC(=O)[C@H](CC(N)=O)NC(=O)[C@H](CCCNC(=N)N)NC(=O)[C@H](Cc2ccc(O)cc2)NC(=O)[C@H](C(C)C)NC(=O)[C@@H]2CSSC[C@H](NC(=O)[C@H](C(C)C)NC(=O)[C@H](CCCNC(=N)N)NC1=O)C(=O)N[C@@H](Cc1c[nH]cn1)C(=O)N[C@@H](CCCNC(=N)N)C(=O)N[C@@H](CCCNC(=N)N)C(=O)N[C@H](C(=O)N[C@@H](CC(N)=O)C(=O)O)CSSC[C@H](NC(=O)[C@H](Cc1ccccc1)NC(=O)CN)C(=O)N[C@@H](CCCCN)C(=O)N[C@@H](C)C(=O)N[C@@H](C(C)C)C(=O)N2` [N3] (H-GFCKAVCVYRNGVRVCHRRCN-OH; disulfide 3-20, 7-16), the MIC against E. coli CVCC1515 was determined as 1 µg/mL (≈ 0.41 µM); in the assay on S. enteritidis CVCC3377 it was 0.5 µg/mL (≈ 0.205 µM); in assay [1] it was 2 µg/mL (≈ 0.821 µM); in [2], 8 µg/mL (≈ 3.28 µM); with Escherichia coli CVCC195, 1 µg/mL (≈ 0.41 µM); in [3] it was 8 µg/mL (≈ 3.28 µM). Besides, the minimum inhibitory concentration (MIC) in assay [4] was above 16 µg/mL; in the assay on S. pullorum CVCC1789 it was 2 µg/mL (≈ 0.821 µM); against S. pullorum CVCC1802 it was 1 µg/mL (≈ 0.41 µM); against S. suis CVCC606 it was 16 µg/mL (≈ 6.57 µM); in assay [5] it was 4 µg/mL (≈ 1.64 µM); in assay [6], above 16 µg/mL. In addition, the MIC was 16 µg/mL (≈ 6.57 µM) with P. aeruginosa CICC21630, 0.25 µg/mL (≈ 0.103 µM) with S. aureus ATCC25923 and above 16 µg/mL in assay [7].
As for `CC(C)[C@@H]1NC(=O)CNC(=O)[C@H](CC(N)=O)NC(=O)[C@H](CCCNC(=N)N)NC(=O)[C@H](Cc2ccc(O)cc2)NC(=O)[C@H](C(C)C)NC(=O)[C@@H]2CSSC[C@H](NC(=O)[C@H](C(C)C)NC(=O)[C@H](CCCNC(=N)N)NC1=O)C(=O)N[C@@H](Cc1c[nH]cn1)C(=O)N[C@@H](CCCNC(=N)N)C(=O)N[C@@H](CCCNC(=N)N)C(=O)N[C@H](C(=O)N[C@@H](CC(N)=O)C(=O)O)CSSC[C@H](NC(=O)[C@H](Cc1ccccc1)NC(=O)CNC(=O)[C@@H](N)Cc1c[nH]c3ccccc13)C(=O)N[C@@H](Cc1c[nH]c3ccccc13)C(=O)N[C@@H](CC(N)=O)C(=O)N[C@@H](C(C)C)C(=O)N2` [N4] (H-WGFCWNVCVYRNGVRVCHRRCN-OH; disulfide 4-21, 8-17), the MIC against E. coli CVCC1515 came to 1 µg/mL (≈ 0.367 µM); against S. enteritidis CVCC3377, 0.25 µg/mL (≈ 0.0918 µM); in [1], 1 µg/mL (≈ 0.367 µM); in the assay with Escherichia coli CVCC195, 1 µg/mL (≈ 0.367 µM); in the assay with S. pullorum CVCC1789, 1 µg/mL (≈ 0.367 µM); with S. pullorum CVCC1802, 2 µg/mL (≈ 0.734 µM). The minimal inhibitory concentration (MIC) is 2 µg/mL (≈ 0.734 µM) in [5], 8 µg/mL (≈ 2.94 µM) in assay [6], 4 µg/mL (≈ 1.47 µM) in the assay with P. aeruginosa CICC21630 and 1 µg/mL (≈ 0.367 µM) in the assay on S. aureus ATCC25923.
Turning to `CC(C)[C@@H]1NC(=O)CNC(=O)[C@H](CC(N)=O)NC(=O)[C@H](CCCNC(=N)N)NC(=O)[C@H](Cc2ccc(O)cc2)NC(=O)[C@H](C(C)C)NC(=O)[C@H](C)NC(=O)[C@H](C(C)C)NC(=O)[C@H](CC(N)=O)NC(=O)[C@H](Cc2c[nH]c3ccccc23)NC(=O)[C@@H](NC(=O)[C@H](Cc2ccccc2)NC(=O)CN)CSSC[C@@H](C(=O)N[C@@H](CC(N)=O)C(=O)O)NC(=O)[C@H](CCCNC(=N)N)NC(=O)[C@H](CCCNC(=N)N)NC(=O)[C@H](Cc2c[nH]cn2)NC(=O)[C@H](C)NC(=O)[C@H](C(C)C)NC(=O)[C@H](CCCNC(=N)N)NC1=O` [N7] (H-GFCWNVAVYRNGVRVAHRRCN-OH; disulfide 3-20), the MIC with E. coli CVCC1515 was 2 µg/mL (≈ 0.808 µM); against S. enteritidis CVCC3377, 0.5 µg/mL (≈ 0.202 µM); in assay [1] it was 2 µg/mL (≈ 0.808 µM); in assay [2], 2 µg/mL (≈ 0.808 µM); in the assay on Escherichia coli CVCC195, 2 µg/mL (≈ 0.808 µM); in [3], 2 µg/mL (≈ 0.808 µM). For the same compound, the MIC in assay [4] is above 64 µg/mL; with S. choleraesuis CVCC503, 16 µg/mL (≈ 6.46 µM); with S. pullorum CVCC1789, 4 µg/mL (≈ 1.62 µM); in the assay with S. pullorum CVCC1802 it was 4 µg/mL (≈ 1.62 µM); in the assay on S. suis CVCC606, 8 µg/mL (≈ 3.23 µM); in assay [5], 8 µg/mL (≈ 3.23 µM). The MIC in assay [6] was above 64 µg/mL; in the assay with P. aeruginosa CICC21630, above 64 µg/mL; with S. aureus ATCC25923, 0.5 µg/mL (≈ 0.202 µM); in [7], above 16 µg/mL.
